Experimental data as given in EP2060252A1, “New formulation of galactosylceramide derivatives” (Wittycell, priority 2007, dated 2009).

Experiments:
[1] = water
[2] = Micelle to vesicle phase transition upon dilution: aspect; format: physicochemical; details: mixed micellar solution from sodium taurocholate and PBS57 (50 µg/mL)
Method: It is well established that phospholipids/bile salt mixed aggregates are going through a phase transition to form vesicles (liposomes) once diluted.
The same experiment was carried out on a mixed micellar solution obtained from sodium taurocholate and PBS57 (50 µg/mL).

[3] = Mixed micelles with bile salts: macroscopic aspect after reconstitution; format: physicochemical; details: for Aspect of the solution after reconstitution: PBS57 200 µg/mL; for Macroscopic observation right after reconstitution with 5% glucose: PBS57 50 µg/mL, ratio bile salt / PBS57 1/1
Method: The mixed-micelle solution manufacturing process requires co-solubilization of the lipid and the bile salt into a solvent (ethanol) that is then evaporated before the final aqueous medium is added to obtain the mixed-micellar solution. A 5% glucose solution was used as the aqueous reconstitution medium here.
Both sodium taurocholate and deoxycholate were tested. A first indication that the mixed aggregates are truly formed is the clear aspect of the solution.
PBS57 concentration in the above 2 experiments was 50 µg/mL. The ratio bile salt / PBS57 was here 1/1.
Solutions of PBS57 at 200 µg/mL associated (equimolar ratio) to sodium taurocholate or sodium deoxycholate were manufactured by the same protocol.

Row | Compound | Thermodynamic aqueous solubility [1] | Aspect upon dilution [2] | Aspect of the solution after reconstitution ([3]; equimolar ratio to sodium deoxycholate) | Aspect of the solution after reconstitution ([3]; equimolar ratio to sodium taurocholate) | Macroscopic observation right after reconstitution with 5% glucose ([3]; excipient Deoxycholate) | Macroscopic observation right after reconstitution with 5% glucose ([3]; excipient Taurocholate)
1 | α-galactosylceramide [α-GC] | below 5 µg/mL |  |  |  |  | 
2 | CCCCCCCC/C=C\CCCCCCCCCCCCCC(=O)N[C@@H](CO[C@H]1O[C@H](CNC(C)=O)[C@H](O)[C@H](O)[C@H]1O)[C@H](O)[C@H](O)CCCCCCCCCCCCCC [PBS57] |  | slightly turbid suspension | perfectly clear | perfectly clear | Turbid with large aggregates, flocculation slowly turning to sedimentation | Slightly turbid
